The source of these data is patent publication US10941063B2 (priority 2015, dated 2021).

In one series the test system is Total bacteria. Briefly: Removal of bacteria from high H2S water, Luminultra ATP test method (Example 17). Format: cell-based. Here is the method: A high H2S water sample near Odessa, Tex., USA was tested for H2S and bacteria removal.
A 600 mL portion of the water was transferred by siphon pump to a 1 L beaker outfitted with a magnetic stir bar, pH probe, ORP probe and a sealed cover with a small opening for adding chemicals. The solution was mixed at a moderate rate at room temperature using a magnetic stir plate while a 17% hydrogen peroxide solution was added in a 1.9:1 molar ratio of oxidant to sulfide to remove about 80% of the H2S. […] After 10 minutes of reaction time aluminum coagulant and anionic flocculation polymer dispersion were added causing a rapid flocculation and settling of most of the pale yellow solids. The clarified supernatant was decanted to a second beaker outfitted the same as the first.
A 500 mL portion of the supernatant above was mixed while a 2.1% sodium peracetate solution was added in a 1.6:1 molar ratio of oxidant to sulfide to remove the remaining 20% of the H2S and promote a final clarification and bacteria removal. […] After 10 minutes of reaction time aluminum coagulant and anionic flocculation polymer dispersion were added causing a rapid flocculation and settling of the pale solids.

The conditions of series [1]: for time until ORP rose above 100 mV indicating H2S fully oxidized: 80 mg/L H2S water. The protocol:
Hydrogen peroxide is an inexpensive oxidant for H2S removal, but is slow acting relative to several other oxidants. Shortening the reaction time or contact time required in a water treatment process reduces the volume of contact basins or increases the throughput of a treatment process such as that described in Example 17.
A portion of the 80 mg/L H2S water was treated by mixing into it a 17% wt/wt solution of hydrogen peroxide such that the molar ratio of hydrogen peroxide to sulfide was about 5.7:1. Hydrogen peroxide was added in excess such that it was not a limiting reagent in the oxidation reaction. The ORP and pH of the water was monitored to track the oxidation rate of H2S. FIG. 3 depicts the progression of ORP and pH over time during oxidation.
A second portion of the 80 mg/L H2S water was treated by mixing into it a 17% wt/wt solution of hydrogen peroxide such that the molar ratio of hydrogen peroxide to sulfide was about 5.7:1. A small portion of muriatic acid (about 34% hydrochloric acid solution) was added with the hydrogen peroxide to slightly lower the pH to between 6.5 and 7.0 thereby converting at least a portion of the NaHS to H2S and accelerate the reaction rate. FIG. 4 depicts the progression of ORP and pH over time during oxidation.

A short description of series [2]: Stability of sodium peracetate oxidant solution (half-life, loss of active oxidant). Format: physicochemical. The text has this: However, the sodium peracetate oxidant solutions were discovered to be stable enough, when diluted to below 1% concentration, to have a working time practical for producing large volumes of treatment fluids in a tank for down-hole well treatment applications including hydrogen sulfide mitigation, bacteria reduction, iron sulfide scale cleaning and polymer gel breaking.
In some embodiments, to conduct a well treatment a large, diluted volume of sodium peracetate oxidant solution is preferably staged in a carrier fluid having no oxidant demand. The carrier fluid may include fresh water, salt water, treated production water and, optionally, combined with other treatment chemicals such as hydrochloric acid, citric acid, acetic acid, acid-containing micellar solvent, corrosion inhibitor, and iron chelant. Lower concentrations, less than 1%, of sodium peracetate oxidant may be staged for a limited period of time with small losses in active oxidant. For example, a 0.25% solution is expected to lose about 4-6% of its active sodium peracetate per hour at 20° C. A container, tank or tanker truck of sodium peracetate solution must be vented to release oxygen gas byproduct evolved from the oxidant as it naturally degrades in a carrier fluid.
In this example a diluted sodium peracetate oxidant solution is staged in 500 barrel (21,000 gal) quantities produced in a 55 minute period. […]

Series [3] relates to naturally occurring microbes. Briefly: Preservation of guar mixture against microbial growth. The following applies: about 65 mg/L oxidant, at least a week at room temperature. It counts as cell-based. Here is the method:
The use of the sodium peracetate oxidant formulation was tested for the depolymerization and break down of guar gum.
The guar mixture was made by rapidly mixing 10 g/L food grade guar gum powder into a 10 g/L sodium chloride solution in distilled water. The blended mixture was heated to about 35-40° C. in a heated water bath for at least one hour to fully hydrate the guar. The mixture appeared translucent with fine, milky white suspended solids. […] Several 60 mL portions of the guar mixture were prepared for different treatments as summarized in Table I. The first was a control sample to which no oxidant was added. The remaining samples had increasing amounts of sodium peracetate oxidant added to them. […] The oxidant was rapidly mixed with the guar mixture resulting in a pale yellow color. The mixtures were placed in a water bath at about 35-40° C. and the yellow color gradually faded away over the next hour. After two hours the samples were cooled to room temperature.
The control sample remained viscous for a day, but lost viscosity after sitting at room temperature overnight and microbial growth as a biofilm was visible after a week. […] The fine, suspended solids settled out leaving a clear, colorless solution. A second treatment of the last sample reduced the viscosity further by a small amount.

The subject of series [4] is acid producing bacteria (APB). Briefly: Uintah basin produced water: acid producing bacteria level. It counts as cell-based. The following applies: for APB: untreated 100-1000. Here is the method:
(§1) Produced water from the Uintah basin in eastern Utah was tested for sulfide treatment and clarification with sodium peracetate solution. The untreated water appeared green-grey in color, was pH 8.1 and contained about 30 mg/L H2S (as S^2), 90 mg/L organic or other sulfides (as S^2−), and 90 mg/L sulfate. Total iron was about 5 mg/L therefore iron sulfide was only a minor sulfide component.
(§2) A first water sample was treated by a “partial oxidation” in Table II with sodium peracetate oxidant solution. The water was stirred in a closed container while sodium peracetate oxidant was added in a 1.25:1 molar ratio of oxidant to H2S. Aluminum coagulant (about 35 mg/L as Al) was added with the oxidant. The mixture was stirred for 30 seconds and then about 5 mg/L of anionic polymer was added. Large floe formed rapidly over the next 60 seconds and then stirring was stopped. The flocculated solids settled rapidly leaving a clear, colorless supernatant. The “partial oxidation” treatment removed hydrogen sulfide and reduced acid producing bacteria (APB) and sulfate reducing bacteria (SRB) levels to 1-10 cells/mL for each. The ORP increased from −166 mV to 88 mV vs SHE (oxidant was fully consumed) and there was a 20 ppm increase in sulfate concentration due to oxidation of a small portion of sulfur-containing contaminants to sulfate.
(§3) A second water sample was treated by a “full oxidation” in Table II with sodium peracetate oxidant solution. The water was stirred in a closed container while sodium peracetate oxidant was added in a 3.8:1 molar ratio of oxidant to H2S. Aluminum coagulant (about 35 mg/L as Al) was added with the oxidant. The mixture was stirred for 30 seconds and then about 5 mg/L of anionic polymer was added. Large floe formed rapidly over the next 60 seconds and then stirring was stopped. The flocculated solids settled rapidly leaving a clear, colorless supernatant. […]

The test system of series [5] is sulfate reducing bacteria (SRB). Put plainly: Uintah basin produced water: sulfate reducing bacteria level. Format: cell-based. The following applies: for SRB: untreated 10-100. Here is the method: as §1, §2, §3
The conditions of series [6]: 7% sodium peracetate solution in clean water; cited from earlier work.
[7] abbreviates: Treated Water Full Oxidation (3.8:1).
[8] abbreviates: Treated Water Partial Oxidation (1.25:1).
[9] abbreviates: full oxidation (3.8:1), after 4 months at room temperature.

Entries after “also recorded” stand apart in the source; their conditions may differ. Like-named read-outs stand apart in the source and are kept apart here.

On to `OO` [hydrogen peroxide], for which the “ATP and corresponding bacteria population reduced by” value in the series on Total bacteria (first step: hydrogen peroxide 1.9:1, then coagulant and polymer) is listed as “about 95%”. Besides, the “ATP concentration in supernatant” value in the series on Total bacteria (first step: hydrogen peroxide 1.9:1, then coagulant and polymer, untreated 280 pg/mL) amounted to 14 pg/mL. The “time until ORP rose above 100 mV indicating H2S fully oxidized” value in series [1] (17% wt/wt hydrogen peroxide, 5.7:1 molar to sulfide, no acid) is recorded as “about 22 minutes”; in series [1] (hydrogen peroxide 5.7:1 with muriatic acid, pH between 6.5 and 7.0) it was “about 9 minutes”. In addition, in series [1] (hydrogen peroxide 5.7:1 with muriatic acid versus without), the “rate of H2S oxidation when acid was added with the oxidant” value is recorded as “approximately doubled”.
As for “sodium peracetate [sodium peracetate oxidant solution]”, the “loss of active oxidant concentration” value in series [2] (0.2% diluted solution, in 55 minutes at 25° C.) was around 4%. For the same compound, in series [2] (0.25% solution, 20° C.), the “loss of active sodium peracetate per hour” value was 4-6%. Further, the “microbial growth in guar mixture (preservative effect)” value in series [3] is on record as “did act as a preservative; also recorded: no microbial growth was observed”. Besides, the “ATP and corresponding bacteria population reduced by, relative to the untreated water” value in the series on Total bacteria (after second step: sodium peracetate 1.6:1 following hydrogen peroxide step) was 99%. In the series with Total bacteria (second step: sodium peracetate 1.6:1 after hydrogen peroxide step), the “ATP concentration in supernatant” value amounted to 3 pg/mL. The APB in series [4] (setting [7]) is below 1 cells/mL; in series [4] (setting [8]) it was 1-10 cells/mL. Moreover, the “grow back of APB” value in series [4] (setting [9]) was “no detectable grow back”. The SRB in series [5] (setting [7]) was below 1 cells/mL; in series [5] (setting [8]), 1-10 cells/mL. For the same compound, the “grow back of SRB” value in series [5] (setting [9]) is “no detectable grow back”. For the same compound, in series [6], the half-life entry is listed as “about 80 minutes”.
